Test [1] has as its target T1, KRas^WT (Homo sapiens, UniProt P01116).
T1 construct: Biotinylated KRas (corresponding to amino acids 1-169, produced at Accelegan Inc.); biotin (biotinylated); purchased Accelegan Inc
Put plainly: KRas binding assay (TR-FRET tracer displacement), KRas WT. To be noted: for IC50: TR-FRET tracer displacement, KRas WT. (In TR-FRET formats the signal depends on donor and acceptor labels being close together.)

Test [2] has as its target T2, KRas^G12A (Homo sapiens, UniProt P01116, G12A).
T2 construct: Biotinylated KRas (corresponding to amino acids 1-169, produced at Accelegan Inc.); biotin (biotinylated); purchased Accelegan Inc
Description: KRas binding assay (TR-FRET tracer displacement), KRas G12A. To be noted: for IC50: TR-FRET tracer displacement, KRas G12A.

In test [3] the target is T3, KRas^G12C (Homo sapiens, UniProt P01116, G12C).
T3 construct: Biotinylated KRas (corresponding to amino acids 1-169, produced at Accelegan Inc.); biotin (biotinylated); purchased Accelegan Inc
T3 sequence (P01116 1-169 isoform P01116-2 G12C): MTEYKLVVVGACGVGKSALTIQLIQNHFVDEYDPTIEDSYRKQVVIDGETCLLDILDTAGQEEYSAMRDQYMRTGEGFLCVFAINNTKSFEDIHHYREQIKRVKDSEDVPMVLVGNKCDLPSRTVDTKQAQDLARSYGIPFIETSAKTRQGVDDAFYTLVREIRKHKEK
Put plainly: KRas binding assay (TR-FRET tracer displacement), KRas G12C. To be noted: for IC50: TR-FRET tracer displacement, KRas G12C.

The target in test [4] is T4, KRas^G12D (Homo sapiens, UniProt P01116, G12D).
T4 construct: Biotinylated KRas (corresponding to amino acids 1-169, produced at Accelegan Inc.); biotin (biotinylated); purchased Accelegan Inc
T4 sequence (P01116 1-169 isoform P01116-2 G12D): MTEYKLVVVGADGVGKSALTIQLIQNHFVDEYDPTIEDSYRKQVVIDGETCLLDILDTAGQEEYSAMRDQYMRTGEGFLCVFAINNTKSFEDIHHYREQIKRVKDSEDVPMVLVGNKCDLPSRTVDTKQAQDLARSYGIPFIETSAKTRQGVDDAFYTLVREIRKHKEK
Description: KRas binding assay (TR-FRET tracer displacement), KRas G12D.

In test [5] the target is T5, KRas^G12R (Homo sapiens, UniProt P01116, G12R).
T5 construct: Biotinylated KRas (corresponding to amino acids 1-169, produced at Accelegan Inc.); biotin (biotinylated); purchased Accelegan Inc
T5 sequence (P01116 1-169 isoform P01116-2 G12R): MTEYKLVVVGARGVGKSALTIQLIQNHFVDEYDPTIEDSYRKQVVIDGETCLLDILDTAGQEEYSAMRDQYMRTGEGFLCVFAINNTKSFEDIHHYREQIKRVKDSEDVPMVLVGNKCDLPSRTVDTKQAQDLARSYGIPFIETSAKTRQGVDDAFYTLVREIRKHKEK
Description: KRas binding assay (TR-FRET tracer displacement), KRas G12R.

Test [6] deals with T6, KRas^G12S (Homo sapiens, UniProt P01116, G12S).
T6 construct: Biotinylated KRas (corresponding to amino acids 1-169, produced at Accelegan Inc.); biotin (biotinylated); purchased Accelegan Inc
T6 sequence (P01116 1-169 isoform P01116-2 G12S): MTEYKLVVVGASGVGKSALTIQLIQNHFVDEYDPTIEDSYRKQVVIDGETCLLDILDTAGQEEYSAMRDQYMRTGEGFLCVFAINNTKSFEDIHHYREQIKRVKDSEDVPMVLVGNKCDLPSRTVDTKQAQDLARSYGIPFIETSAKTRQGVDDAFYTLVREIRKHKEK
Description: KRas binding assay (TR-FRET tracer displacement), KRas G12S. The note with it: for IC50: TR-FRET tracer displacement, KRas G12S.

The target in test [7] is T7, KRas^G12V (Homo sapiens, UniProt P01116, G12V).
T7 construct: Biotinylated KRas (corresponding to amino acids 1-169, produced at Accelegan Inc.); biotin (biotinylated); purchased Accelegan Inc
T7 sequence (P01116 1-169 isoform P01116-2 G12V): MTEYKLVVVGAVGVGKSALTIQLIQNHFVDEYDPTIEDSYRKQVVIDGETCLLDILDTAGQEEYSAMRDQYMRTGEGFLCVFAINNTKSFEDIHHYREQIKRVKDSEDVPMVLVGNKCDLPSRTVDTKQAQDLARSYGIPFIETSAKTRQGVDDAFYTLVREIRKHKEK
Put plainly: KRas binding assay (TR-FRET tracer displacement), KRas G12V.

The target in test [8] is T8, KRas^G13D (Homo sapiens, UniProt P01116, G13D).
T8 construct: Biotinylated KRas (corresponding to amino acids 1-169, produced at Accelegan Inc.); biotin (biotinylated); purchased Accelegan Inc
T8 sequence (P01116 1-169 isoform P01116-2 G13D): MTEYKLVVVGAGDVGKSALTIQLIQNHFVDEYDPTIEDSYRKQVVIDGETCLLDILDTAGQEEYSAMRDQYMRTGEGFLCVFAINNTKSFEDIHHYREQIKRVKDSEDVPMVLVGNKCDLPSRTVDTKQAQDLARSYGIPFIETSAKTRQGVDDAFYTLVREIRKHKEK
Description: KRas binding assay (TR-FRET tracer displacement), KRas G13D. To be noted: for IC50: TR-FRET tracer displacement, KRas G13D.

Test [9] has as its target T9, KRas^Q61H (Homo sapiens, UniProt P01116, Q61H).
T9 construct: Biotinylated KRas (corresponding to amino acids 1-169, produced at Accelegan Inc.); biotin (biotinylated); purchased Accelegan Inc
Description: KRas binding assay (TR-FRET tracer displacement), KRas Q61H. To be noted: for IC50: TR-FRET tracer displacement, KRas Q61H.

Test [10] has as its system KRas-mediated phosphorylation of ERK in MKN1 cells. Description: Inhibition of KRas-mediated phosphorylation of ERK (Cisbio HTRF pERK), MKN1 cells. The note with it: Homo sapiens, MKN-1. The format is cell-based. A digest of the protocol:
(§1)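 Phospho-ERK is quantified by HTRF with the Advanced pERK kit. Cells go in at 6,000/well in RPMI plus 10% FBS overnight at 37° C. under 5% CO2, with a 4-hour covered room-temperature incubation ahead of the read.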

Test [11] deals with KRas-mediated phosphorylation of ERK in PSN1 cells. Put plainly: Inhibition of KRas-mediated phosphorylation of ERK (Cisbio HTRF pERK), PSN1 cells. To be noted: Homo sapiens. The format is cell-based. A digest of the protocol:
as §1

The test system of test [12] is KRas-mediated phosphorylation of ERK in AsPC-1 cells. Description: Inhibition of KRas-mediated phosphorylation of ERK (Cisbio HTRF pERK), AsPC-1 cells. The format is cell-based. To be noted: Homo sapiens, ASPC1, AsPC-1 cells; HTRF pERK. A digest of the protocol: (§2)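 A cell-based HTRF pERK assay: ten-point, threefold titrations beginning at 10 uM were applied for 3 hrs, with 0.2 uM Trametinib wells as the minimum control. Cells were lysed cold, and lysate was incubated with the antibody pair for 2 hrs before reading.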

Test [13] deals with KRas-mediated phosphorylation of ERK in H727 cells. Put plainly: Inhibition of KRas-mediated phosphorylation of ERK (Cisbio HTRF pERK), H727 cells. The note with it: Homo sapiens, NCI-H727, H727 cells; HTRF pERK. The format is cell-based. A digest of the protocol: as §2
Test [14] has as its system KRas-mediated phosphorylation of ERK in A549 cells. Description: Inhibition of KRas-mediated phosphorylation of ERK (Cisbio HTRF pERK), A549 cells. The format is cell-based. The note with it: Homo sapiens; for IC50: HTRF pERK. A digest of the protocol:
(§3)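 Cells were seeded at 6,000 per well and treated for 3 hrs with compound in a 10-dose, 3-fold series from 10 uM (0.8% final DMSO), with 0.2 uM Trametinib as Min control. Lysates made at 4° C over 40 mins were incubated 2 hrs at room temperature with d2- and Cryptate-labelled antibodies, then read by HTRF.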

For test [15], the system named is KRas-mediated phosphorylation of ERK in H460 cells. Description: Inhibition of KRas-mediated phosphorylation of ERK (Cisbio HTRF pERK), H460 cells. To be noted: Homo sapiens; for IC50: NCI-H460, HTRF pERK. The format is cell-based. A digest of the protocol: as §2
Test [16] deals with KRas-mediated phosphorylation of ERK in HCT116 cells. Description: Inhibition of KRas-mediated phosphorylation of ERK (Cisbio HTRF pERK), HCT116 cells. The format is cell-based. To be noted: Homo sapiens; for IC50: HCT-116, HTRF pERK. A digest of the protocol:
as §3

For test [17], the system named is KRas-mediated phosphorylation of ERK in H358 cells. Put plainly: Inhibition of KRas-mediated phosphorylation of ERK (Cisbio HTRF pERK), H358 cells. The format is cell-based. The note with it: Homo sapiens; for IC50: NCI-H358, HTRF pERK. Put shortly:
as §2

The mark [18] stands for this setting: single point, 10 nM compound, TR-FRET.

The inhibition is the drop in the measured response relative to a control, in per cent. The low end stands for a response near the control, the high end for a response far below the control. A word on the IC50: it is the concentration at which inhibition is half-maximal. Read a high IC50 as lower potency.

T2 sequence (P01116 1-169 isoform P01116-2 G12A): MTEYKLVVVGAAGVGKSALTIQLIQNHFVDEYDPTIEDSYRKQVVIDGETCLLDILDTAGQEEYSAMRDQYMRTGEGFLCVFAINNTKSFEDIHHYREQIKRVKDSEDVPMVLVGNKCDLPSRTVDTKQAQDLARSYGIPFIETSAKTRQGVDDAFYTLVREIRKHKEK
T1 sequence (P01116 1-169 isoform P01116-2): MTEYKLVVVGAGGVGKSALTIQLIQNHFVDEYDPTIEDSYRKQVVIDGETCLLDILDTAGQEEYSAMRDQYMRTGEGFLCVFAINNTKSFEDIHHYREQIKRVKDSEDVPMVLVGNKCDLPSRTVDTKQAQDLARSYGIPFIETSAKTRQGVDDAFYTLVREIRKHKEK
T9 sequence (P01116 1-169 isoform P01116-2 Q61H): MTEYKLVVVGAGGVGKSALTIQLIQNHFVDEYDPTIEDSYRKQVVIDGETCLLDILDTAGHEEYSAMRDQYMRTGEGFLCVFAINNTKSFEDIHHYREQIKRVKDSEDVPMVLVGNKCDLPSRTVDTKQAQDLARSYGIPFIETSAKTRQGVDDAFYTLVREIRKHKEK

On to `CCc1c(F)ccc2cc(O)cc(-c3ncc4c(N5CCC(O)c6nn(C(=O)N(C)C)cc6C5)nc(OC[C@@]56CCCN5C[C@H](F)C6)nc4c3F)c12` (stereo partly drawn) [Example 674, 5-(7-(8-ethyl-7-fluoro-3-hydroxynaphthalen-1-yl)-8-fluoro-2-(((2R,7aS)-2-fluorohexahydro-1H-pyrrolizin-7a-yl)methoxy)pyrido[4,3-d]pyrimidin-4-yl)-8-hydroxy-N,N-dimethyl-5,6,7,8-tetrahydropyrazolo[4,3-c]azepine-2(4H)-carboxamide], for which the inhibition at 0.01 µM in test [1] (setting [18]) was found to be 91%; in [2] (setting [18]), 93%; in test [3] (setting [18]), 98%; in test [6] (setting [18]), 97%; in test [8] (setting [18]), 92%; in test [9] (setting [18]), 95%. Further, the concentration for half-maximal inhibition (IC50) was less than 2 nM in [4]; less than 2 nM in test [5]; less than 2 nM in [7]; 6 nM in [10]; more than 10000 nM in [11]; 9 nM in test [12]. Moreover, the half-maximal inhibitory concentration (IC50) in [13] amounted to 21 nM; in test [14] it was 30 nM; in test [15], 69 nM; in test [16], 191 nM; in [17] it was 2 nM. Also, the inhibition at 0.1 µM in [14] (A549, 3 h, single point, 100 nM compound, 3 hrs) was found to be 74%; in test [15] (NCI-H460, 3 h, single point, 100 nM compound, 3 hrs) it was 63%; in test [16] (HCT-116, 3 h, single point, 100 nM compound, 3 hrs) it was 17%; in test [17] (NCI-H358, 3 h, single point, 100 nM compound, 3 hrs), 97%.

Regarding `O=S1(=O)NCC2(CCCN(c3nc(OCC45CCCN4CCC5)nc4c(F)c(-c5cc(O)cc(Cl)c5C5CC5)ncc34)C2)N1` (stereo not shown) [Example 745, 7-(7-(3-chloro-2-cyclopropyl-5-hydroxyphenyl)-8-fluoro-2-((hexahydro-1H-pyrrolizin-7a-yl)methoxy)pyrido[4,3-d]pyrimidin-4-yl)-2-thia-1,3,7-triazaspiro[4.5]decane 2,2-dioxide], the IC50 in test [1] is 4 nM; in test [2], less than 2 nM; in [3], 3 nM; in test [4], less than 2 nM; in test [5] it was less than 2 nM; in test [6] it was 5 nM. Further, the 50% inhibitory concentration (IC50) is less than 2 nM in test [7]; 3 nM in [8]; less than 2 nM in test [9]; 511 nM in [10]; 4280 nM in test [11]; 867 nM in test [12]. The IC50 is 701 nM in test [13]; 815 nM in [14]; 516 nM in [15]; 1710 nM in test [16]; 185 nM in test [17].

Regarding `CCc1cccc2cc3[nH]ncc3c(-c3ncc4c(N5CCCC6(CNC(=O)N6)C5)nc(OC[C@@]56CCCN5C[C@H](F)C6)nc4c3F)c12` (stereo partly drawn) [Example 769, 7-(7-(5-ethyl-1H-benzo[f]indazol-4-yl)-8-fluoro-2-(((2R,7aS)-2-fluorohexahydro-1H-pyrrolizin-7a-yl)methoxy)pyrido[4,3-d]pyrimidin-4-yl)-1,3,7-triazaspiro[4.5]decan-2-one], the 50% inhibitory concentration (IC50) in test [1], in test [2], in test [3], in test [4], in test [5] and in [6] was less than 2 nM each time. The half-maximal inhibitory concentration (IC50) is less than 2 nM in [7]; less than 2 nM in test [8]; less than 2 nM in test [9]; 226 nM in [10]; more than 10000 nM in [11]; 510 nM in [12]. The IC50 in test [13] is 567 nM; in [14], 2190 nM; in test [15], 661 nM; in [16], 1240 nM; in test [17], 88 nM.

The record behind these values is US20260015350A1, “AZAQUINAZOLINE PAN-KRAS INHIBITORS” (Mirati Therapeutics, Inc., priority 2022, published 2026).
